{
  "source": "patent US7476691B2",
  "about": "“Sulfamate benzothiophene derivatives as steroid sulfatase inhibitors” (Laboratoire Theramex, priority 2003, dated 2009)",
  "key": {"[1]": {"assay": "Serum estrogen levels (E1S and E2) in treated rats", "format": "in vivo, rat", "conditions": "24 h after last administration", "procedure": "In this study, a last administration was performed 24 hours before the necropsy for E1S and E2 serum levels assays. The uteri were removed, freed of adjacent tissue, wet weighed and immediately deep frozen until the determination of sulfatase activity.\nE1S and E2 levels were determined according to the supplier's standard method (DSL, Webster, Tex., USA)."}, "MCF-7 cells": {"system": "MCF-7 cells", "assay": "Hormono-dependent induced MCF-7 xenografts: volume and weight", "format": "in vivo, mice", "conditions": "oral 0.1 mg/kg/day for 6 weeks", "procedure": "MCF-7 cells, derived from human breast adenocarcinoma, were injected subcutaneously in ovariectomized athymic nude mice supplemented with estrone sulfate (pellets 0.5 mg/90 day release). Xenograft volumes were determined once weekly. When tumor volumes reached a significant increase, 6,6,7 COUMATE and Ex 55 were orally administered at 0.1 mg/kg/day for 6 weeks.\nXenografts were measured, removed, weighed, and deep frozen until the determination of steroid sulfatase activity."}, "estrone sulfatase [2]": {"molecular_target": "T1, estrone sulfatase (Homo sapiens, UniProt P08842)", "T1 sequence (P08842 22-583)": "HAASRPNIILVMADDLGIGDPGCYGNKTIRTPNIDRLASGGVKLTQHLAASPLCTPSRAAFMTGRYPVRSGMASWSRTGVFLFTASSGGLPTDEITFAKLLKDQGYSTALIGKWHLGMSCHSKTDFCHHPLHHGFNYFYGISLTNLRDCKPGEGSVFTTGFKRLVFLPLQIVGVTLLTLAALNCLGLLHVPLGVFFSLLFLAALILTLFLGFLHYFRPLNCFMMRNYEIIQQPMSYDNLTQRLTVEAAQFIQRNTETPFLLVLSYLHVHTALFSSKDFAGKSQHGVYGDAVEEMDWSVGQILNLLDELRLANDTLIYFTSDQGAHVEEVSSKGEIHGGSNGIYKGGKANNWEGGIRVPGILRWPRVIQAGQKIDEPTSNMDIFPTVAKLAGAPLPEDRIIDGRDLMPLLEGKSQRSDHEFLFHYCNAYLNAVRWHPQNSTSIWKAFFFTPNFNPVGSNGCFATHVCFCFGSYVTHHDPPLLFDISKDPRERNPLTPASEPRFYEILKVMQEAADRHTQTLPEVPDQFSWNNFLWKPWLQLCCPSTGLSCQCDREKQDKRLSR", "assay": "Estrone sulfatase whole-cell assay on JEG-3 cells", "format": "cell-based", "design": "The JEG-3 cell line, derived from a human placental choriocarcinoma, is spontaneously very rich in human estrone sulfatase; endogenous in cells; host or cells: JEG-3 (human placental choriocarcinoma), intact cells", "conditions": "4 h treatment, 3H-E1S, read-out: IC50 (nM) ± S.E.M., inhibition of estrone sulfatase", "procedure": "(§1) Two in vitro models on whole cells were used. […] Moreover, these cells were used in the in vivo model of hormono-dependent induced xenografts.\n(§2) Estrone Sulfatase Assay on Cells\n(§3) Whole-cell assays were performed as originally described by Duncan et al. (Cancer Res., 1993, 53: 298-303) on intact MCF-7 cell monolayers. Assays were carried out with cells in logarithmic growth phase, on 96-well (JEG-3) or 24-well (MCF-7) microplates. Twenty-four hours (JEG-3) or 72 h (MCF-7) before studies, cells were seeded in decomplemented fetal calf serum (dFCS) supplemented medium. Then, the seeding medium was removed and the cells were rinsed with PBS to eliminate any trace of dFCS. Then, ^3H-E1S was added, followed by test compounds ranging from 10^−12 M to 10^−5 M. After 4 h (JEG-3) or 20 h (MCF-7) of treatment, the medium was transferred into either 96-deep-well microplates (JEG-3) or plastic tubes (MCF-7) and centrifuged at 200×g for 10 min to pellet cells before toluene extraction. A fraction of medium was used for toluene extraction in order to separate conjugated substrate and non-conjugated products. The radioactivity in the toluene phase was measured by liquid scintillation counting (LSC). Finally, estrone sulfatase activity was expressed in pmoles of ^3H-E1+^3H-E2 formed per 4 or 20 hours and per μg DNA and estrone sulfatase inhibition in percentage of control activity without inhibitor."}, "estrone sulfatase [3]": {"molecular_target": "T1, estrone sulfatase", "assay": "Estrone sulfatase whole-cell assay on MCF-7 cells", "format": "cell-based", "design": "Whole-cell assays were performed as originally described by Duncan et al. (Cancer Res., 1993, 53: 298-303) on intact MCF-7 cell monolayers; endogenous in cells; host or cells: MCF-7 (human breast adenocarcinoma), intact monolayers", "conditions": "20 h treatment, 3H-E1S, read-out: IC50 (nM) ± S.E.M., inhibition of estrone sulfatase", "procedure": "as §1, §2, §3"}, "[4]": {"conditions": "MCF-7 xenografts, nude mice with E1S pellet"}},
  "data": [
    {"smiles": "NS(=O)(=O)Oc1ccc2c(c1)S(=O)(=O)C(CC1CCCCCC1)=C2", "note": "[Ex 55, Sulfamic acid, 2-cycloheptylmethyl-benzothiophene-6-yl-1,1-dioxide ester]", "values": [
      {"measurement": "E1S levels (serum)", "setting": "[1]; 0.03 mg/kg/day p.o.", "value": "17 ± 2.5", "unit": "ng/mL"},
      {"measurement": "E2 levels (serum)", "setting": "[1]; 0.03 mg/kg/day p.o.", "value": "31 ± 2.8", "unit": "pg/mL"},
      {"measurement": "E1S levels (serum)", "setting": "[1]; 0.1 mg/kg/day p.o.", "value": "21 ± 2.4", "unit": "ng/mL"},
      {"measurement": "E2 levels (serum)", "setting": "[1]; 0.1 mg/kg/day p.o.", "value": "28 ± 1.3", "unit": "pg/mL"},
      {"measurement": "E1S levels (serum)", "setting": "[1]; 0.3 mg/kg/day p.o.", "value": "69 ± 5.9", "unit": "ng/mL"},
      {"measurement": "E2 levels (serum)", "setting": "[1]; 0.3 mg/kg/day p.o.", "value": "22 ± 1.2", "unit": "pg/mL"},
      {"measurement": "E1S levels (serum)", "setting": "[1]; 1 mg/kg/day p.o.", "value": "83 ± 2.5", "unit": "ng/mL"},
      {"measurement": "E2 levels (serum)", "setting": "[1]; 1 mg/kg/day p.o.", "value": "15 ± 0.9", "unit": "pg/mL"},
      {"measurement": "Xenograft volume after 6 week treatment", "setting": "MCF-7 cells; [4]", "value": "1488 ± 233", "unit": "mm^3"},
      {"measurement": "Xenograft weight after 6 week treatment", "setting": "MCF-7 cells; [4]", "value": "877 ± 185", "unit": "mg"},
      {"measurement": "inhibition of the E1S induced stimulation (xenograft volume)", "setting": "MCF-7 cells", "value": 18, "unit": "%"},
      {"measurement": "inhibition of xenograft weight", "setting": "MCF-7 cells", "value": 35, "unit": "%"},
      {"measurement": "IC50", "setting": "estrone sulfatase [2]", "value": "7.7 ± 0.4", "unit": "nM"},
      {"measurement": "IC50", "setting": "estrone sulfatase [3]", "value": "0.05 ± 0.01", "unit": "nM"}
    ]}
  ]
}
